In patent publication US20200411135A1, “Neoantigen Identification with Pan-Allele Models” (Gritstone Oncology, Inc., priority 2018, published 2020):
Peptide text beside a SMILES is read from it.

Tested on: in vitro expanded PBMCs (neoantigen-reactive T-cells) from NSCLC patients
Experiment: IFN-gamma ELISpot on in vitro stimulated (IVS) patient PBMCs with patient-specific neoantigen peptides and peptide pools
Type: cell-based, human
Conditions: patient PBMCs after 14 days IVS; >2-fold increase above DMSO background considered positive
Method: To do so, archival FFPE tumor biopsies and 5-30 ml of peripheral blood were analyzed from 9 patients with metastatic NSCLC undergoing anti-PD(L)1 therapy (Supplementary Table 1: Patient demographics and treatment information for N=9 patients studied in FIGS. 26A-C. Key fields include tumor stage and subtype, anti-PD1 therapy received, and summary of NGS results.). […] The full MS model was applied to prioritize 20 neoepitopes per patient for testing against pre-existing anti-tumor T-cell responses. To focus the analysis on likely CD8 responses, the prioritized peptides were synthesized as 8-11mer minimal epitopes (Methods), and then peripheral blood mononuclear cells (PBMCs) were cultured with the synthesized peptides in short in vitro stimulation (IVS) cultures to expand neoantigen-reactive T-cells (Supplementary Table 2). After two weeks the presence of antigen-specific T-cells was assessed using IFN-gamma ELISpot against the prioritized neoepitopes. In seven patients for whom sufficient PBMCs were available, separate experiments were also performed to fully or partially deconvolve the specific antigens recognized. The results are depicted in FIGS. 26A-C and 27A-30.
FIG. 26A depicts detection of T-cell responses to patient-specific neoantigen peptide pools for nine patients. For each patient, predicted neoantigens were combined into 2 pools of 10 peptides each according to model ranking and any sequence homologies (homologous peptides were separated into different pools). Then, for each patient, the in vitro expanded PBMCs for the patient were stimulated with the 2 patient-specific neoantigen peptide pools in IFN-gamma ELISpot. Data in FIG. 26A are presented as spot forming units (SFU) per […] plated cells with background (corresponding DMSO negative controls) subtracted. Responses of single wells (patients 1-038-001, CU02, CU03 and 1-050-001) or replicates with mean and standard deviation (all other patients) against cognate peptide pools #1 and #2 are shown for patients 1-038-001, 1-050-001, 1-001-002, CU04, 1-024-001, 1-024-002 and CU05. For patients CU02 and CU03, cell numbers allowed testing against specific peptide pool #1 only. Samples with values >2-fold increase above background were considered positive and are designated with a star (responsive donors include patients 1-038-001, CU04, 1-024-001, 1-024-002, and CU02). Unresponsive donors include patients 1-050-001, 1-001-002, CU05, and CU03. […] depicts photographs of ELISpot wells with in vitro expanded PBMCs from patient CU04, stimulated in IFN-gamma ELISpot with DMSO negative control, PHA positive control, CU04-specific neoantigen peptide pool #1, CU04-specific peptide 1, CU04-specific peptide 6, and CU04-specific peptide 8.
Pre-existing T-cells from healthy donor or patient samples were expanded in the presence of cognate peptides and IL-2 in a similar approach to that applied by Ott el al.^81 Briefly, thawed PBMCs were rested overnight and stimulated in the presence of peptide pools (10 μM per peptide, 10 peptides per pool) in ImmunoCult™-XF T-cell Expansion Medium ([…] Technologies) with 10 IU/ml rhIL-2 (R&D Systems Inc., Minneapolis, Minn.) for 14 days in 24-well tissue culture plates. Cells were seeded at 2×10^6 cells/well and fed every 2-3 days by replacing 2/3 of the culture media.
Detection of IFNγ-producing T-cells was performed by ELISpot assay^142. […]

Row | SMILES | T-cell response / recognition in IFN-gamma ELISpot
1 | CC[C@H](C)[C@H](NC(=O)[C@H](CC(N)=O)NC(=O)[C@H](CCC(=O)O)NC(=O)[C@@H](N)CC(=O)O)C(=O)N[C@H](C(=O)N[C@H](C(=O)N[C@H](C(=O)N[C@@H](CCC(N)=O)C(=O)N[C@@H](Cc1ccccc1)C(=O)O)[C@@H](C)CC)[C@@H](C)O)[C@@H](C)O (H-DENITTIQF-OH; N-terminus and C-terminus assumed) | peptide-specific T-cell response was deconvolved
2 | CC(C)[C@H](NC(=O)[C@@H](NC(=O)[C@@H](N)CC(=O)O)[C@@H](C)O)C(=O)N[C@@H](CCC(=O)O)C(=O)N[C@@H](Cc1ccc(O)cc1)C(=O)N1CCC[C@H]1C(=O)N[C@@H](Cc1ccc(O)cc1)C(=O)N[C@H](C(=O)N[C@@H](CO)C(=O)N[C@@H](Cc1ccccc1)C(=O)O)[C@@H](C)O (H-DTVEYPYTSF-OH; N-terminus and C-terminus assumed) | peptide-specific T-cell response was deconvolved
3 | CSCC[C@H](NC(=O)[C@@H](NC(=O)[C@H](CC(C)C)NC(=O)[C@@H](NC(=O)[C@H](C)NC(=O)[C@H](C)NC(=O)[C@H](CC(=O)O)NC(=O)[C@H](C)NC(=O)[C@@H](NC(=O)[C@@H](N)CCC(=O)O)C(C)C)[C@@H](C)O)[C@@H](C)O)C(=O)O (H-EVADAATLTM-OH; N-terminus and C-terminus assumed) | peptide-specific T-cell response was deconvolved
4 | CC(C)C[C@H](NC(=O)[C@@H](NC(=O)[C@H](CC(=O)O)NC(=O)[C@@H](NC(=O)[C@H](CC(=O)O)NC(=O)[C@H](CCCCN)NC(=O)[C@H](CCCCN)NC(=O)[C@@H](NC(=O)CN)[C@@H](C)O)C(C)C)C(C)C)C(=O)N[C@@H](CCCCN)C(=O)O (H-GTKKDVDVLK-OH; N-terminus and C-terminus assumed) | recognized by CD8 T-cells
5 | CC(C)[C@H](NC(=O)[C@H](CCC(N)=O)NC(=O)[C@@H](NC(=O)[C@H](CO)NC(=O)[C@@H](NC(=O)[C@H](CC(=O)O)NC(=O)[C@@H](N)CCC(N)=O)C(C)C)C(C)C)C(=O)N[C@@H](CCC(=O)O)C(=O)N[C@@H](CCCNC(=N)N)C(=O)O (H-QDVSVQVER-OH; N-terminus and C-terminus assumed) | peptide-specific T-cell response was deconvolved
